The results in this text go back to US20230303599A1, “PRODRUGS OF PHOSPHONAMIDE NUCLEOTIDE ANALOGUES AND THEIR PHARMACEUTICAL USE” (priority 2020, published 2023).

In brackets after ≈: the same amount, converted by molar mass. Read-outs that look alike come from different tables or passages of the source.

The test system of data set [1] is PBMCs. Description: TFV-DP formation in peripheral blood mononuclear cells (PBMCs). In kind it is in vitro ADME, human. Conditions: 1 μM compound, 2 hrs at 37° C., 50% serum, activated PBMCs; average of at least two independent experiments. The protocol:
Example 109: TFV-DP Formation in Peripheral Blood Mononuclear Cells (PBMCs)
Compounds were tested in a 96-well assay format for the level of TFV-DP loading in PBMCs in the presence of human serum. PBMCs were activated with 100 units/mL recombinant human […] and […] phytohaemagglutinin (PHA) for 36 hrs. After activation, PBMCs (2 million) were incubated with compounds (1 μM) and cell culture media with 50% serum in a 96 well plate for 2 hrs at 37° C. Cells were transferred to a 96 well deep block plate and spun down. Liquid was removed, and cells were washed 2× with 1 mL of 0.9% saline with spin downs between washes. After a final wash and liquid removal, 500 μL of MeOH+200 nM C1-ATP+200 nM [adenine-^13Cs]-tenofovir diphosphate (tetra ammonium salt) was added and thoroughly mixed with the cells. The plate was then spun down and 450 μL of sample was transferred to a new 96 well plate. Supernatants were then evaporated, reconstituted in 80 μl of 1 mM ammonium phosphate and thoroughly vortexed. Blank samples were pooled for serial dilution to construct calibration standards for TFV, TFV-DP and TFV-TP in pmol/million cells. Samples were then transferred to a short-well 96 well plate, centrifuged and injected on an LC-MS/MS for quantification. Values were reported in μM units using an intracellular volume of […].

Data set [2] in a line: Kinetic solubility analysis. In kind it is physicochemical. Conditions: 1× PBS, 24.2 °C, aqueous buffer, kinetic from dmso stock; pH 7.4 PBS, 1% DMSO, 24-hour incubation at ambient temperature. In a few lines:
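Compounds from 10 mM DMSO stocks were incubated in 0.1 N HCl or 1× PBS pH 7.4 (1.0% DMSO, 100 μM maximum theoretical) for 24 h at 24.2-27.5 °C, then vacuum filtered. Filtrates were quantified in μM by chemiluminescent nitrogen detection against a calibration curve, corrected for background nitrogen; values for adjacent ring-nitrogen compounds were raised ~25%.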

Data set [3] deals with HIV-1 (IIIB). Put plainly: Antiviral (HIV) assay in MT-4 cells. In kind it is cell-based. Here is the method:
Example 104: Antiviral (HIV) Assay in MT-4 Cells
Compounds were tested in a high-throughput 384-well assay format for their ability to inhibit the replication of HIV-1 (IIIB) in MT-4 cells. Compounds were serially diluted (1:3) in DMSO on 384-well polypropylene plates and further diluted 200-fold into complete RPMI media (10% FBS, 1% P/S) using the Biotek Micro Flow and Labcyte ECHO acoustic dispenser. Each plate contained up to 8 test compounds, with negative (no drug) and positive (5 μM AZT) controls. MT-4 cells were pre-treated with 10 μL of either RPMI (mock-infected) or a fresh 1:250 dilution of HIV-1 IIIB concentrated virus stock. Infected and uninfected MT-4 cells were further diluted in complete RPMI media and added to each plate using a Micro Flow dispenser. After 5 days incubation in a humidified and temperature-controlled incubator (37° C.), Cell Titer Glo (Promega) was added to the assay plates and chemiluminescence read using an Envision plate-reader. EC50 values were defined as the compound concentration that causes a 50% decrease in luminescence signal and were calculated using a sigmoidal dose-response model to generate curve fits and are shown in Table 1.

Data set [4] in a line: Cytotoxicity assay in MT-4 cells. In kind it is cell-based. Conditions: human, uninfected MT-4 cells, average of at least two independent experiments, read-out: MT4 CC50. A digest of the protocol: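 Uninfected MT-4 cells were incubated 5 days at 37 °C with 1:3 serially diluted compound in RPMI (10% FBS), with 10 μM puromycin as baseline cytotoxicity. Viability was read by CellTiter-Glo luminescence. Values are concentrations giving 50% luminescence decrease, from sigmoidal dose-response fits.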

Broadly, the kinetic solubility is the concentration staying in solution when a stock, usually in DMSO, is diluted into the medium. On to `C[C@H](Cn1cnc2c(N)ncnc21)OCP(=O)(NC(C)(C)C(=O)O[C@H]1CC[C@H](C(C)(C)C)CC1)NC(C)(C)C(=O)O[C@H]1CC[C@H](C(C)(C)C)CC1` [Example 12, Bis(trans-4-(tert-butyl)cyclohexyl) 2,2′-((((((R)-1-(6-amino-9H-purin-9-yl)propan-2-yl)oxy)methyl)phosphoryl)bis(azanediyl))bis(2-methylpropanoate)], for which, in data set [1], the “Average PBMC TFV-DP (μM)” value was “BLQ”. Also, the solubility (kinetic) at 24 h in data set [2] was under 1 µg/mL.
The corresponding values for `C[C@H](Cn1cnc2c(N)ncnc21)OCP(=O)(NC(C)(C)C(=O)OC1CCOCC1)NC(C)(C)C(=O)OC1CCOCC1` [Example 24, Bis(tetrahydro-2H-pyran-4-yl) 2,2′-(((((1-(6-amino-9H-purin-9-yl)propan-2-yl)oxy)methyl)phosphoryl)bis(azanediyl))(R)-bis(2-methylpropanoate)] are “BLQ” and 69 µg/mL (≈ 110 µM).
The term EC50 denotes the concentration needed to bring the measured effect to its halfway point. `CC(C)CCCOC(=O)C(C)(C)NP(=O)(CO[C@H](C)Cn1cnc2c(N)ncnc21)NC(C)(C)C(=O)OCCCC(C)C` [Example 67, Bis(4-methylpentyl) 2,2′-(((((1-(6-amino-9H-purin-9-yl)propan-2-yl)oxy)methyl)phosphoryl)bis(azanediyl))(R)-bis(2-methylpropanoate)]: the EC50 in data set [3] (HIV-1 IIIB in MT-4 cells, 5 days, Cell Titer Glo, average of at least two independent experiments, read-out: MT4 HIV EC50) stood at 8 nM. Besides, in data set [1], the “Average PBMC TFV-DP” value is 5.5 µM.
In general, CC50 refers to the concentration giving 50% cytotoxicity. Take `CCCCCCOC(=O)C(C)(C)NP(=O)(CO[C@H](C)Cn1cnc2c(NC(=O)CCCSC(C)=O)ncnc21)NC(C)(C)C(=O)OCCCCCC` [Example 97, Dihexyl 2,2′-(((((1-(6-(4-(acetylthio)butanamido)-9H-purin-9-yl)propan-2-yl)oxy)methyl)phosphoryl)bis(azanediyl))(R)-bis(2-methylpropanoate)]: in data set [4], the CC50 at 5 days is 10.7 µM. For the same molecule, in data set [3] (Human immunodeficiency virus 1, IIIB, MT4, 120 h, read-out: MT4 HIV EC50 (nM)), the EC50 was found to be 13 nM. The molecule further gave a kinetic solubility at 24 h in data set [2] of 13 µg/mL (≈ 16.9 µM).
Turning to `CCCCCCOC(=O)C(C)(C)NP(=O)(CO[C@H](C)Cn1cnc2c(NC(=O)CC(C)(C)CC(=O)OCc3oc(=O)oc3C)ncnc21)NC(C)(C)C(=O)OCCCCCC` [Example 102, Dihexyl 2,2′-(((((1-(6-(3,3-dimethyl-5-((5-methyl-2-oxo-1,3-dioxol-4-yl)methoxy)-5-oxopentanamido)-9H-purin-9-yl)propan-2-yl)oxy)methyl)phosphoryl)bis(azanediyl))(R)-bis(2-methylpropanoate)], the CC50 at 5 days in data set [4] is 45.1 µM. Moreover, the “Average PBMC TFV-DP (μM)” value in data set [1] is reported as “BLQ”. Moreover, the kinetic solubility at 24 h in data set [2] was found to be 10 µg/mL (≈ 11.4 µM).
